Where “and” joins values, the source holds several entries; their conditions need not be identical. Equal entries are not always repeated.
Tests used:
Experiment in all cases: PamChip tyrosine kinase microarray
Type in all cases: biochemical
Conditions in all cases: 0.1 µM, HL60 lysate
[1] = target: T1, Etk/BMX (P51813) (Homo sapiens, UniProt P51813)
T1 construct: purchased PamGene (PamChip PTK array, Upstream Kinase Analysis)
T1 sequence (P51813 1-675): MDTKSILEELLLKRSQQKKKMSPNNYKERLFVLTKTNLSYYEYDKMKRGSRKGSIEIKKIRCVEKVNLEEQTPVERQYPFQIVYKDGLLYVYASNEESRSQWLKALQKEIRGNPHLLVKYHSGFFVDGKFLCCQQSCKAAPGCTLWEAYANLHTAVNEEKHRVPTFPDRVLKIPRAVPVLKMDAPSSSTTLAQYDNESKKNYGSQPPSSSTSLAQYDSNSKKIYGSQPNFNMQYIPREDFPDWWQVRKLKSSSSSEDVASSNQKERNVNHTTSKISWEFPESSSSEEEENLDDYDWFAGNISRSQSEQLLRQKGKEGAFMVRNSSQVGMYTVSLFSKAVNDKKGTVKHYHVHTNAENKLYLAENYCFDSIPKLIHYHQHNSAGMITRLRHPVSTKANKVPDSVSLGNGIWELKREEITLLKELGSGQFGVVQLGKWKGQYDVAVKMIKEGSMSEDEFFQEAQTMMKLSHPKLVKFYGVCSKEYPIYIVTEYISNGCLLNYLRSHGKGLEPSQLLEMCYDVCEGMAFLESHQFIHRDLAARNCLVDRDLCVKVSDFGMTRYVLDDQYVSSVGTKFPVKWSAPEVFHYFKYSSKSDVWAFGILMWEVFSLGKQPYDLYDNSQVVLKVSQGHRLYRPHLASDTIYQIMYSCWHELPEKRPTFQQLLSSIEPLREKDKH
Protocol: (§1) The reproducible high potency of KIM-161 on leukemia cell lines was initially speculated to encompass Src tyrosine kinase inhibition. Even so, we also suspected that KIM-161 might be affecting other tyrosine kinases because the HL60 cells are not among the most Src-dependent highly proliferative cells ([Collins, 1987]). Therefore, a profiling of the kinase activities was performed after treatment with KIM-161 using PamChip® tyrosine kinase microarray. This analysis is based on incubation of cell lysate with 3D microarray that projects peptides specific for 143 tyrosine kinases. If a kinase is modified in the cells, it will be detected by phosphorylating its specific peptide in the microarray.
(§2) This test measured the activities of an array of tyrosine kinases of treated HL60 cells compared to the control (untreated cells) after incubation with KIM-161 for 48 h at concentrations of 0.001, 0.01, 0.1, 1.0, 10, and 50 µM. The log fold change (LFC) heat map was initially used to identify significant peptides affected at each concentration (Figure 5).
(§3) An Upstream Kinase Tool was used to generate a putative list of kinases responsible for phosphorylating the phosphosites on the PamChip®. It is an interpretation and is highly dependent on the contents of the underlying phosphorylation databases. Kinase score (Table 2) was used for ranking kinases based on their significance and specificity in terms of the set of peptides used for the corresponding kinase. Kinase statistics indicates the overall change of the peptide set that represents a certain kinase. Kinase statistics value of <0 indicates lower kinase activity in the lysate spiked with the compound and vice versa. Table 2 lists the 20 most changed kinases within treated HL60 cell lysates by 0.1 μM KIM-161.
(§4) Every compound had spiked into a leukemic (AML) cell line HL60 lysate at different concentrations (0.001, 0.01, 0.1, 1, 10, and 50 μM). In addition, DMSO had also spiked at a low concentration (2% v/v) to the HL60 lysate as the control. The samples were profiled on PamGene's tyrosine kinase (PTK) arrays in technical replicates, covering a total of 196 phosphorylation sites. The frozen leukemic HL60 cultured cell pellet was sent to PamGene. At PamGene, the cells were lysed in the presence of the lysis buffer and proteases inhibitor cocktail. The protein concentration was measured using the standard Bradford assay as per the PamGene SOPs. These lysates were further used for generating the PTK activity profiles. For spiking, KIM-161 was received in powder form and dissolved in DMSO at the PamGene facility, followed by storing it at −20°C in small aliquots. PamGene used its in-house bioinformatics toolbox in combination with other methods to generate the hypotheses of signaling pathways.

[2] = target: T2, FGFR4 (P22455) (Homo sapiens, UniProt P22455)
T2 construct: purchased PamGene (PamChip PTK array, Upstream Kinase Analysis)
Protocol: as §1, §2, §3, §4

[3] = target: T3, Fer (P16591) (Homo sapiens, UniProt P16591)
T3 construct: purchased PamGene (PamChip PTK array, Upstream Kinase Analysis)
Protocol: as §1, §2, §3, §4

[4] = target: T4, HCK (P08631) (Homo sapiens, UniProt P08631)
T4 construct: purchased PamGene (PamChip PTK array, Upstream Kinase Analysis)
Protocol: as §1, §2, §3, §4

T4 sequence (P08631 whole entry): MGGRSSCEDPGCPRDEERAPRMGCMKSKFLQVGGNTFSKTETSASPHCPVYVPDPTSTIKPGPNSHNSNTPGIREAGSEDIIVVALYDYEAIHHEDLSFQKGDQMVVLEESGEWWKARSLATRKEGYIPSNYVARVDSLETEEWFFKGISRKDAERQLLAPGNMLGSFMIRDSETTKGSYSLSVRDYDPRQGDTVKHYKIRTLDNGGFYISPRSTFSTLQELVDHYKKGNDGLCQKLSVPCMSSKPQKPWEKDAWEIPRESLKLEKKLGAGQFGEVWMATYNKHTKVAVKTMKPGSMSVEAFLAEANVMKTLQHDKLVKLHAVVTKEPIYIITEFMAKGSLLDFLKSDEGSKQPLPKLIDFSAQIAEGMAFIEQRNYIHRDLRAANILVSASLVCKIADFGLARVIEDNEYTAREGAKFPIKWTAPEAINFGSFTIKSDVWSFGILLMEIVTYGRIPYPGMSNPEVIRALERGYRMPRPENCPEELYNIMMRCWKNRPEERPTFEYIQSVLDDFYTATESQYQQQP
T2 sequence (P22455 22-802): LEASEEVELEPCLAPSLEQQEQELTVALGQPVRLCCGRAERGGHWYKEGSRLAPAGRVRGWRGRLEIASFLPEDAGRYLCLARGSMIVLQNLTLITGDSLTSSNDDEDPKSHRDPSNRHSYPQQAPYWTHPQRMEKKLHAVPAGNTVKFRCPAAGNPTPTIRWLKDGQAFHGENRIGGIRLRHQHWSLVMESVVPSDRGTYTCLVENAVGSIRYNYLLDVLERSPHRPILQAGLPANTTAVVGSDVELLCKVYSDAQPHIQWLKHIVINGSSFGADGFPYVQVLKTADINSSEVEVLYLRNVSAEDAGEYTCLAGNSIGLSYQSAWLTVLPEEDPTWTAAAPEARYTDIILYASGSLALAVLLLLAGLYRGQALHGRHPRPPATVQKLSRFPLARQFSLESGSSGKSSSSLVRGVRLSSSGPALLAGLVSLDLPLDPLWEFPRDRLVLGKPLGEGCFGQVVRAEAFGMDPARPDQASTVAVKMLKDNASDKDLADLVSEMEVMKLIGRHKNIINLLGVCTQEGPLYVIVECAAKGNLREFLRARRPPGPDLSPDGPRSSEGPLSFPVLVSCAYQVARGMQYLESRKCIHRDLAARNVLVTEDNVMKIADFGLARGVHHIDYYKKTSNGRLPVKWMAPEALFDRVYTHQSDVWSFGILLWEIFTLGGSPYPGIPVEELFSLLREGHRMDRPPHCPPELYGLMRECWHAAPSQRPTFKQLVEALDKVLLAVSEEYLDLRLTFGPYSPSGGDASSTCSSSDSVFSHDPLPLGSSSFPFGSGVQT
T3 sequence (P16591 whole entry): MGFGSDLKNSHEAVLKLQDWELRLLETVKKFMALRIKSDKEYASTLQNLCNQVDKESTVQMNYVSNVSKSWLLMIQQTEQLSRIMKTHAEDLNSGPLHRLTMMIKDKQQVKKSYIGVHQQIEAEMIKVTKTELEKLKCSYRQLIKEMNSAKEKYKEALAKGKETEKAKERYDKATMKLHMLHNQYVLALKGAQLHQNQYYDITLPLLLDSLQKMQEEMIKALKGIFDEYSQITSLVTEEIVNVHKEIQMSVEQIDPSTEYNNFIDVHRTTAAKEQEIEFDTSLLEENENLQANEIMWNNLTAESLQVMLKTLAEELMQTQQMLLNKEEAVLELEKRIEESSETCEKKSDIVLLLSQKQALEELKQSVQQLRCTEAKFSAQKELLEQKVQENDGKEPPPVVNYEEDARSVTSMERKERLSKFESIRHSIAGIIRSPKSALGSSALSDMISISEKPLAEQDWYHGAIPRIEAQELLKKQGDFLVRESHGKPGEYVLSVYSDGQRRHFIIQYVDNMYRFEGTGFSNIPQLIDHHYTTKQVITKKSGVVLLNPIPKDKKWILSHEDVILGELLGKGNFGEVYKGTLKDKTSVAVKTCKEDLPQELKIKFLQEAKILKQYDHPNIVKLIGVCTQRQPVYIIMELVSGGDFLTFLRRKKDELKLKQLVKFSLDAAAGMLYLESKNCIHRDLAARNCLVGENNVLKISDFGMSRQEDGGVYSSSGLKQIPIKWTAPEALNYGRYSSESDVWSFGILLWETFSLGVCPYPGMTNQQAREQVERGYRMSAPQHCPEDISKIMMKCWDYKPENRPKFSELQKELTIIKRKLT

COc1ccc(/C=C2\N=C(C)N(c3ccc(CC(=O)NCc4ccccc4)cc3)C2=O)cc1 [Compound 4c, (Z)-N-Benzyl-2-(4-(4-(4-methoxybenzylidene)-2-methyl-5-oxo-4,5-dihydro-1H-imidazol-1-yl)phenyl)acetamide]
Mean Final score (Kinase score) [1]: 2.196
Mean Kinase Statistic [1]: -1.111
Mean Significance Score [1]: 2.048
Mean Specificity Score [1]: 0.1452
Mean Significance Score [2]: 2.023
Mean Specificity Score [2]: 0.5516
Mean Final score (Kinase score) ([2]; listed as KIM-161): 2.73 and 2.7333
Mean Final score (Kinase score) [3]: 2.491
Mean Kinase Statistic [3]: -1.259
Mean Significance Score [3]: 2.048
Mean Specificity Score [3]: 0.455
Mean Final score (Kinase score) [4]: 1.871
Mean Kinase Statistic [4]: -1.0936
Mean Significance Score [4]: 1.7269
Mean Specificity Score [4]: 0.1451
